According to patent publication EP3731817B1, “PHARMACEUTICAL COMPOSITION OF LENALIDOMIDE PHARMACEUTICALLY ACCEPTABLE ACID ADDITION SALT” (KRKA, d.d., Novo mesto, priority 2017, dated 2019):
Counter-ions that a name gives are not always drawn.

Tests used:
[1] = Stability testing: physical form (disproportionation) monitored by X-ray powder diffraction after storage in vials; type: physicochemical; details: physical form found by XRPD after storage in vials
Protocol: The binary mixtures and pharmaceutical compositions were stored in vials at 40°C/75%RH for 1 month or at 50° C 75% RH for 14 days. Disproportionation effect was monitored by X-ray powder diffraction pattern.
X-ray powder diffraction patterns were obtained by a PANalytical PW3040/60 X'Pert PRO diffractometer using CuKα radiation of 1,541874.
(§1) Lenalidomide hydrochloride and the all the excipients with respect to the composition were weighed into the glass vial. Gelatine capsule were added into the vials. The vials were then closed with the stopper and gently mixed to form a homogenous mixture. The vials were subjected to the stress conditions.
as §1, with “hydrochloride in the form of monohydrate form VII” for “hydrochloride”, “vials. Vials” for “vials. The vials”
The capsules were stored in vials at 40°C/75%RH for 1 month. Physical stability of the samples was monitored by X-ray powder diffraction pattern. As evident from the results, the physical form remains the same, a disproportionation effect was not observed.

[2] = cited from earlier work

## Nc1cccc2c1CN(C1CCC(=O)NC1=O)C2=O (stereo not drawn) [API, Lenalidomid HCl·H2O]
[1]
  Stability testing 1 month at 40°C/75%RH: HCl salt

## Nc1cccc2c1CN(C1CCC(=O)NC1=O)C2=O (stereo not drawn) [lenalidomide, (3-(4' aminoisoindoline-1'-one)-1-piperidine-2,6-dione)]
[2]; primary amine group
  dissociation constant pKa1: 2.31
[2]; secondary amine group
  pKa2: 11.6
